Measured values: patent US20040071768A1, “Compositions and methods for treating cancer” (Inex Pharmaceuticals Corporation, priority 1999, published 2004)

Tests used:
DLD-1 colon xenografts = details: positive control
Procedure: Female NCr nude mice were injected intravenously (q7dx3) via the lateral tail vein on days indicated by an asterisk (*). […] Irinotecan (⋄) was prepared in saline and injected iv (q4dx3) at a dose of 90 mg/kg/dose. Drug-to-lipid ratio was 0.3/1 (w/w). Data points represent median tumor volume (n=6).
(§1) The anti-tumor activity of multiple (q7d3) dose schedules of liposomal vinorelbine was evaluated in several human xenograft tumor models. The goal of this series of studies was to identify the benefits of encapsulation by evaluating a series of doses and determining the therapeutic index in several xenograft models. Models were selected based on the following criteria: (1) activity in the single dose studies, (2) a comprehensive literature review of vinca alkaloid efficacy, (3) a desire to include at least 2-3 models that represent the clinical use of vinorelbine, and (4) a desire to include models with a range of sensitivity to vinorelbine so that improvements resulting from the use of the liposome formulation might be identified. Based on these criteria, MX-1 and MDA-MB-435 breast models, the NCl-H460 NSCLC model and the HT-29 and DLD-1 colon models were chosen.
(§2) Therapeutic index (TI) is a parameter that quantifies the “safety factor” of a particular therapy. TI is a ratio of a toxicity parameter and a biological activity parameter. Therefore, a higher ratio represents a greater potential margin of safety. For these studies, TI is defined as follows: […]
(§3) The minimal effective dose (MED) was set according to NCl activity criteria as the dose resulting in an optimal % T/C of 40. This information was derived from Table 7.

[1] = system: NCl H460 non small cell lung xenografts; assay: Multiple dose (q7dx3) anti-tumor activity, NCl H460 non small cell lung xenograft; details: positive control
Procedure: Female NCr nude mice were injected intravenously (q7dx3, beginning day 7) via the lateral tail vein. […] Mitomycin C (⋄) was prepared in saline and injected iv (q4dx3) at a dose of 3 mg/kg/dose. Drug-to-lipid ratio was 0.3/1 (w/w). Data points represent median tumor volume (n=6).
as §1, §2, §3

[2] = system: MDA-MB-435 breast xenografts; details: positive control
Procedure: Female NCr nude mice were injected intravenously (q7dx3, beginning day 15) via the lateral tail vein. […] Paclitaxel (⋄) was prepared in […]/12.5% ethanol/75% saline and injected iv (q1dx5) at a dose of 15 mg/kg/dose. Drug-to-lipid ratio was 0.3/1 (w/w). Data points represent median tumor volume (n=6).
as §1, §2, §3

[3] = adults, cited from earlier work

In the case of `CCc1c2c(nc3ccc(OC(=O)N4CCC(N5CCCCC5)CC4)cc13)-c1cc3c(c(=O)n1C2)COC(=O)[C@]3(O)CC` [Irinotecan], the “% T/C (optimal % T/C following final treatment)” value (DLD-1 colon xenografts; 90 mg/kg/dose iv q4dx3) is reported as 11%, the “DRD (drug related deaths, n = 6)” value (DLD-1 colon xenografts; 90 mg/kg/dose iv q4dx3) is reported as 0 and the “NCI Score” value (DLD-1 colon xenografts; 90 mg/kg/dose iv q4dx3) is reported as 1. The “T-C (tumor growth delay to 1000 mm^3)” value (DLD-1 colon xenografts; 90 mg/kg/dose iv q4dx3) was 17.2 and the “TF (tumor free animals at the end of study)” value (DLD-1 colon xenografts; 90 mg/kg/dose iv q4dx3, n=6) was 0.
In the case of `CO[C@@]12[C@H](COC(N)=O)C3=C(C(=O)C(C)=C(N)C3=O)N1C[C@@H]1N[C@@H]12` [Mitomycin C], the “% T/C (optimal % T/C following final treatment)” value ([1]; 3 mg/kg/dose iv q4dx3) is reported as 5%, the “DRD (drug related deaths, n = 6)” value ([1]; 3 mg/kg/dose iv q4dx3) is reported as 0 and the “NCI Score” value ([1]; 3 mg/kg/dose iv q4dx3) is reported as 1. For the same compound, the “T-C (tumor growth delay to 1000 mm^3)” value ([1]; 3 mg/kg/dose iv q4dx3) was 22.2 and the “TF (tumor free animals at the end of study)” value ([1]; 3 mg/kg/dose iv q4dx3, n=6) was 0.
For `CC(=O)O[C@H]1C(=O)[C@@]2(C)[C@H]([C@H](OC(=O)c3ccccc3)[C@]3(O)C[C@H](OC(=O)[C@H](O)[C@@H](NC(=O)c4ccccc4)c4ccccc4)C(C)=C1C3(C)C)[C@]1(OC(C)=O)CO[C@@H]1C[C@@H]2O` [Paclitaxel], the “% T/C (optimal % T/C following final treatment)” value ([2]; 15 mg/kg/dose iv q1dx5) was −55%, the “NCI Score” value ([2]; 15 mg/kg/dose iv q1dx5) was 3 and the “T-C (tumor growth delay to 1000 mm^3)” value ([2]; 15 mg/kg/dose iv q1dx5) was 36.9. The “TF (tumor free animals at the end of study)” value ([2]; 15 mg/kg/dose iv q1dx5, n=6) was 0.
For `CC[C@]1(O)C[C@H]2CN(CCc3c([nH]c4ccccc34)[C@@](C(=O)OC)(c3cc4c(cc3OC)N(C=O)[C@H]3[C@@](O)(C(=O)OC)[C@H](OC(C)=O)[C@]5(CC)C=CCN6CC[C@]43[C@@H]65)C2)C1` [free vincristine, 22-oxovincaleukoblastine], the “total dose at which peripheral neuropathic effects usually begin” value ([3]; 2-3 doses) is listed as 5 to 6 mg and the “cumulative dose after which peripheral neuropathic effects are generally significant” value ([3]; 8-10 doses) is listed as 15 to 20 mg.
